Results reported in US20040235855A1, “Phospholipase C inhibitors for use in treating inflammatory disorders” (priority 2003, published 2004).

Tests used:
human PLC-β2 = molecular target: T1, human PLC-β2 (Homo sapiens, UniProt Q00722); assay: PLC assay using FlashPlates (96-well, immobilized [3H]PIP2 substrate); type: biochemical; conditions: purified recombinant human PLC-β2 or cytosolic human PLC-β2; hydrolysis of [3H]PIP2
T1 construct: made in house; host or cells: Sf9 cells (Spodoptera frugiperda), recombinant baculovirus
T1 sequence (Q00722 whole entry): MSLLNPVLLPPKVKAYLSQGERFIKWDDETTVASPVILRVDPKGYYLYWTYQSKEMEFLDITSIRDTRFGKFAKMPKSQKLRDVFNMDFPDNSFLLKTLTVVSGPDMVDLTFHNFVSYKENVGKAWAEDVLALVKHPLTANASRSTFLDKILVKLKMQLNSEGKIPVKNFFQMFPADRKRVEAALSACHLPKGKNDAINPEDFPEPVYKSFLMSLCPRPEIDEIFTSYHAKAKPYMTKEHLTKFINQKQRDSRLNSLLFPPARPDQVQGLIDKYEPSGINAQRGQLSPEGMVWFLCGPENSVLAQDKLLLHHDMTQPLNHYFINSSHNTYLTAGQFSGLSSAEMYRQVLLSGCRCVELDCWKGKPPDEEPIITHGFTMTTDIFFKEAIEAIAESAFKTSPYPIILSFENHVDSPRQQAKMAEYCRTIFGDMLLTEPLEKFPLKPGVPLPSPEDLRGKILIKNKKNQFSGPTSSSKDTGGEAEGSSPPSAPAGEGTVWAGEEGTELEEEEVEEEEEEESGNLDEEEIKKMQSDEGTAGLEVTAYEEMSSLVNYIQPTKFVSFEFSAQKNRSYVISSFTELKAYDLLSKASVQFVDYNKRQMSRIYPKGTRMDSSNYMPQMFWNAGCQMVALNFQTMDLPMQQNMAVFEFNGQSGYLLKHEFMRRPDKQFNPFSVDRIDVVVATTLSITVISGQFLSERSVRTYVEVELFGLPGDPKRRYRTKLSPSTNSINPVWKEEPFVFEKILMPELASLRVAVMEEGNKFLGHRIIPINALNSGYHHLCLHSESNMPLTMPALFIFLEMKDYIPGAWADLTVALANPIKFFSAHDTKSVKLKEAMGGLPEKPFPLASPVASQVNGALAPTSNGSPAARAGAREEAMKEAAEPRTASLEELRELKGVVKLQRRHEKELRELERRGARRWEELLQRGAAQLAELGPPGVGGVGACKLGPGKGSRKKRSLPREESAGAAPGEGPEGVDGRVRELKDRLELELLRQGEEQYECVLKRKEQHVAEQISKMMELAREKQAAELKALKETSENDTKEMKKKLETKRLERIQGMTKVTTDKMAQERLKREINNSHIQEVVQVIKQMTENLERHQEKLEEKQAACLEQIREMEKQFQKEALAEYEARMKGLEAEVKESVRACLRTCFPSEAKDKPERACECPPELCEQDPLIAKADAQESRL
Text: The hydrolysis of phosphatidylinositol-4,5-bisphosphate (PIP2) by a specific phospholipase C-β2 (PLC-β2) produces two intracellular messengers, diacylglycerol (DAG) and inositol 1,4,5-trisphosphate (IP3), which mediate the activation of protein kinase C and intracellular Ca^2+ release. A conventional organic solvent extraction method is widely used for PLC assays to isolate IP3 from the substrate PIP2. The conventional PLC-β2 assay, however is terminated by addition of acidified organic solvents and subsequent extraction and phase separation. […] Accordingly, a preferred method to test the compounds of the present invention, was developed utilizing a 96-well plate assay for PLC-β2 using immobilized radiolabeled substrate to quantitatively measure the reduction in the substrate level without a need for organic solvent extraction. The automated PLC-β2 assay described herein provides a convenient method for quantitative measurement of phospholipase C activities in a high throughput fashion. Ninety-six well Phospholipid FlashPlates were coated with 0.2 mL of 50 mM Tris/HCl (pH 7.4), 0.01% Ac-BSA and 50,000 cpm of […] (phosphatidylinositol-4,5-bisphosphate) at 4° C. for 72 h. The wells were aspirated and washed twice with PBS. The reactions were conducted directly in the wells in PLC reaction buffer containing 50 mM Tris/HCl (pH 7.2), 2.75 mM EDTA (pH 7.3), 80 mM KCl, 10 mM LiCl, 0.04% DOC and 2 mM CaCl2 in the absence or presence of the purified recombinant human PLC-β2 (prepared as described hereafter) or cytosolic human PLC-β2 from […]. Reduction of radioactivity was monitored by a Packard TopCount instrument (Packard Instrument Company, Conn., USA). […] The cells were grown in Grace's media supplemented with 10% (v/v) fetal bovine serum, 3.3 g/l yeastolate, 3.3 g/l lactalbumin hydrosylate, glutamine (6.4 mM final), 50 μg/ml gentamicin, and 50 μg/ml kanamycin. Suspension of Sf9 cells (1.0×10^6 cells/ml) were infected with 5 pfu/cell of recombinant baculovirus encoding PLC-β2 and incubated at 27° C. for 72 h. The cells were collected by centrifugation (500×g, 7 min, 4° C.) and disrupted by hypotonic lysis buffer containing 20 mM Tris/HCl, pH 7.4, 5 mM MgCl2, 2 mM EGTA, 200 μM PMSF, 200 μM benzamidine and 1 μM pepstatin A. The lysate was sonicated on ice and the nuclei and unbroken cells removed by centrifigation (500×g, 5 min, 4C.). The supernatant was recovered and clarified by centrifugation (34,000 rpm, 60 min, 4C.). The supernatant was used as a crude cytosolic fraction (Paterson, A., Boyer, J. L., Watts, V. J., Morris, A. J., Price, […]. (1995) Concentration of enzyme-dependent activation of PLC β1 and PLC β2 by Gα11 and βγ subunits. Cellular Signalling 7, 709-720). Crude cytosol prepared from Sf9 cells expressing PLC-β2 was purified initially by chromatography on a 10 ml column of Q-Sepharose FF, equilibrated in buffer A (25 mM HEPES, pH 7.2,2 mM DTT, 2 mM EDTA, 2 mM EGTA, 200 μM PMSF, 200 μM benzamidine, 1 μM pepstatin A containing 10 mM NaCl). The column was washed with 20 ml of equilibration buffer and eluted with a 200-ml gradient of 110-410 mM NaCl in buffer A. The fractions containing PLC activity were pooled and diluted with buffer A. The diluted enzyme was applied to a 4 ml column of heparin-SepharoseCL-6B equilibrated in buffer A and the column washed with 70 ml of buffer A. The column was eluted with 80 ml of gradient of 0-1.0 M NaCl in buffer A, the column eluate collected in 3 ml fractions. […]

PMA-induced ear edema = assay: Acute PMA-induced ear edema mouse model; type: in vivo
Text: The acute PMA-induced ear edema mouse model was used to test compounds of the present […] (as described in Carlson R P, O'Neill-Davis L, Chang J. and Lewis A J, Modulation of Mouse Ear Edema by Cyclooxygenase and Lipoxygenase Inhibitors and Other Pharmacologic Agents, Agents and Actions, 1985, 17:197-204).

Row | SMILES | IC50 (human PLC-β2) [nM] | % Inhibition (PMA-induced ear edema; 5 mpk i.v.) [%] | % Inhibition (PMA-induced ear edema; 30 mpk i.p.) [%] | % Inhibition (PMA-induced ear edema; 30 mpk p.o.) [%]
1 | NC(=O)c1ccc(N2CCN(C(c3ccc(F)cc3)c3ccc(F)cc3)CC2)c(NC(=S)NCc2ccccc2)c1 [Cpd 21, 4-[4-[bis(4-fluorophenyl)methyl]-1-piperazinyl]-3-[[[(phenylmethyl)amino]thioxomethyl]amino]-benzamide] | 2300 | 56 | 83 | 31
2 | NC(=O)c1ccc(N2CCN(C3c4ccccc4-c4ccccc43)CC2)c(NC(=O)Nc2ccccc2)c1 [Cpd 9, 4-[4-(9H-fluoren-9-yl)-1-piperazinyl]-3-[[(phenylamino)carbonyl]amino]-benzamide] | 1900 | 44 | 52 | 44
3 | CN(C)CCNC(=O)c1ccc(N2CCN(C(c3ccccc3)c3ccccc3)CC2)c(NC(=O)Nc2ccccc2)c1 [Cpd 29, N-[2-(dimethylamino)ethyl]-4-[4-(diphenylmethyl)-1-piperazinyl]-3-[[(phenylamino)carbonyl]amino]-benzamide] | 3300 |  |  | 
4 | NC(=O)c1ccc(N2CCCN(C(c3ccncc3)c3ccc(F)cc3)CC2)c(NC(=O)NC2CCCCC2)c1 (stereo not shown) [Cpd 80, 3-[[(cyclohexylamino)carbonyl]amino]-4-[4-[(4-fluorophenyl)-4-pyridinylmethyl]hexahydro-1H-1,4-diazepin-1-yl]-benzamide] | > 10000 |  |  | 
5 | NC(=O)c1ccc(N2CCN(C(c3ccc(F)cc3)c3ccc(F)cc3)CC2)c(NC(=O)Nc2ccccc2)c1 [Cpd 3, 4-[4-[bis(4-fluorophenyl)methyl]-1-piperazinyl]-3-[[(phenylamino)carbonyl]amino]-benzamide] | 1500 |  |  | 
6 | O=C(Nc1ccccc1)Nc1cc(C(=O)N2CCNCC2)ccc1N1CCN(C(c2ccccc2)c2ccc(Cl)cc2)CC1 (stereo not shown) [Cpd 60, N-[2-[4-[(4-chlorophenyl)phenylmethyl]-1-piperazinyl]-5-(1-piperazinylcarbonyl)phenyl]-N′-phenyl-urea] | 950 |  |  | 
7 | NCCNC(=O)c1ccc(N2CCN(C(c3ccccc3)c3ccccc3)CC2)c(NC(=O)NC2CCCCC2)c1 [Cpd 27, N-(2-aminoethyl)-3-[[(cyclohexylamino)carbonyl]amino]-4-[4-(diphenylmethyl)-1-piperazinyl]-benzamide] | 2800 |  |  | 
8 | O=C(Nc1cc(C(=O)N2CCCNCC2)ccc1N1CCN(C(c2ccccc2)c2ccccc2)CC1)NC1CCCCC1 [Cpd 25, N-cyclohexyl-N′-[2-[4-(diphenylmethyl)-1-piperazinyl]-5-[(hexahydro-1H-1,4-diazepin-1-yl)carbonyl]-phenyl]urea] | 2600 |  |  | 
9 | NC(=O)c1ccc(N2CCN(C(c3ccc(F)cc3)c3ccc(F)cc3)CC2)c(NC(=O)Nc2ccc3c(c2)OCO3)c1 [Cpd 14, 3-[[(1,3-benzodioxol-5-ylamino)carbonyl]amino]-4-[4-[bis(4-fluorophenyl)methyl]-1-piperazinyl]-benzamide] | 3100 |  |  | 
10 | NC(=O)c1ccc(N2CCCN(C(c3ccncc3)c3ccc(F)cc3)CC2)c(NC(=O)Nc2ccccc2)c1 (stereo not shown) [Cpd 79, 4-[4-[(4-fluorophenyl)-4-pyridinylmethyl]hexahydro-1H-1,4-diazepin-1-yl]-3-[[(phenylamino)carbonyl]amino]-benzamide] | > 10000 |  |  | 
11 | C[C@H](NC(=O)Nc1cc(C(N)=O)ccc1N1CCN(C(c2ccccc2)c2ccccc2)CC1)c1ccccc1 [Cpd 11, 4-[4-(diphenylmethyl)-1-piperazinyl]-3-[[[[(1S)-1-phenylethyl]amino]carbonyl]amino]-benzamide] | 8400 |  |  | 
12 | CC(C)C[C@H](NC(=O)c1ccc(N2CCN(C(c3ccccc3)c3ccccc3)CC2)c(NC(=O)Nc2ccccc2)c1)C(=O)O [Cpd 32, N-[4-[4-(diphenylmethyl)-1-piperazinyl]-3-[[(phenylamino)carbonyl]amino]benzoyl]-L-leucine] | 3900 |  |  | 
13 | O=C(Nc1cc(C(=O)N2CCNCC2)ccc1N1CCN(C(c2ccccc2)c2ccccc2)CC1)NC1CCCC1 [Cpd 63, N-cyclopentyl-N′-[2-[4-(diphenylmethyl)-1-piperazinyl]-5-(1-piperazinylcarbonyl)phenyl]-urea] | 13700 |  |  | 

More lines, main results first:

Row | IC50 (human PLC-β2) [nM] | SMILES | % Inhibition (PMA-induced ear edema; 5 mpk i.v.) [%] | % Inhibition (PMA-induced ear edema; 30 mpk i.p.) [%] | % Inhibition (PMA-induced ear edema; 30 mpk p.o.) [%]
14 | 1600 | O=C(Nc1ccccc1)Nc1cc(C(=O)N2CCNCC2)ccc1N1CCN(C(c2ccccc2)c2ccccc2)CC1 [Cpd 40, N-[2-[4-(diphenylmethyl)-1-piperazinyl]-5-(1-piperazinylcarbonyl)phenyl]-N′-phenylurea] | 44 | 81 | 9
15 | > 25000 | C[C@H](NC(=O)Nc1cc(C(=O)N2CCNCC2)ccc1N1CCN(C(c2ccccc2)c2ccccc2)CC1)c1ccccc1 [Cpd 64, N-[2-[4-(diphenylmethyl)-1-piperazinyl]-5-(1-piperazinylcarbonyl)phenyl]-N′-[(1S)-1-phenylethyl]-urea] |  |  | 
16 | 4900 | CN1CCN(C(=O)c2ccc(N3CCN(C(c4ccccc4)c4ccccc4)CC3)c(NC(=O)Nc3ccccc3)c2)CC1 [Cpd 23, N-[2-[4-(diphenylmethyl)-1-piperazinyl]-5-[(4-methyl-1-piperazinyl)carbonyl]phenyl]-N′-phenylurea] |  |  | 
17 | 870 | O=C(Nc1ccccc1)Nc1cc(C(=O)N2CCCNCC2)ccc1N1CCN(C(c2ccccc2)c2ccccc2)CC1 [Cpd 24, N-[2-[4-(diphenylmethyl)-1-piperazinyl]-5-[(hexahydro-1H-1,4-diazepin-1-yl)carbonyl]phenyl]-N′-phenylurea] |  |  | 
18 | 1900 | NCCNC(=O)c1ccc(N2CCN(C(c3ccccc3)c3ccccc3)CC2)c(NC(=O)Nc2ccccc2)c1 [Cpd 26, N-(2-aminoethyl)-4-[4-(diphenylmethyl)-1-piperazinyl]-3-[[(phenylamino)carbonyl]amino]-benzamide] |  |  | 
19 | 1300 | O=C(Nc1ccccc1)Nc1ccc(C(=O)N2CCNCC2)cc1N1CCN(C(c2ccccc2)c2ccccc2)CC1 [Cpd 91, N-[2-[4-(diphenylmethyl)-1-piperazinyl]-4-(1-piperazinylcarbonyl)phenyl]-N′-phenyl-urea] |  |  | 
